Results on 1 molecule are retold here after patent US20140378541A1, “Synthetic Epigallocatechin Gallate (EGCG) Analogs” (WAYNE STATE UNIVERSITY, priority 2011, published 2014).

Structures are written as SMILES.

Experiment [1] concerns human multiple myeloma OPM1 cells. The experiment is described as follows: MTT assay in multiple myeloma OPM1 cells, alone or with Velcade. It is filed as cell-based. To be noted: 48 h. (Tetrazolium assays rely on reduction of a dye to a coloured formazan, in cell work by metabolically active cells.)
For experiment [2], the system named is human multiple myeloma ARP cells. The experiment is described as follows: MTT assay in multiple myeloma ARP cells, alone or with Velcade. It is filed as cell-based. Particulars: varying doses, 48 h. How it is done:
The cells were treated with Velcade™ alone or with 20 μM of compounds 5, 7 and 23 or in combination with varying doses of Velcade™ for 48 hrs, followed by a MTT assay.
Human multiple myeloma cells (Arp and Opm1) cells, kindly provided by Dr. Ramesh Batchu (Wayne State University), were grown in RPMI-1640 medium supplemented with 10% FBS, 100 units/ml of penicillin, and 100 μg/ml of streptomycin. Cells were maintained at 37° C. in 5% CO2 (Mujtaba T, et al., Int J Mol Med. (2012) 29(1):102-6).
Cells were grown in a 96-well plate. Triplicate wells of cells were treated with indicated concentrations of EGCG or EGCG analogs for 24 h. After aspiration of medium, MTT (1 mg/ml) was then added to the cell cultures, followed by incubation for 3 h at 37° C. After cells were crystallized, MTT was removed and DMSO was added to dissolve the metabolized MTT product. The absorbance was then measured on a Wallac Victor3 1420 Multi-label counter at 540 nm.

Take `CC(C)C[C@H](NC(=O)[C@H](Cc1ccccc1)NC(=O)c1cnccn1)B(O)O` [Velcade™, bortezomib, reference compound]: in experiment [1], the “sensitivity of OPM1 cell line to treatment, versus ARP cells” value was “more resistant”. Also, in experiment [2], the “cell proliferation, Velcade alone” value was “reduced cell proliferation in a dose-dependent manner”.
